{"source": "ChEMBL document CHEMBL1201862", "about": "“PubChem BioAssay data set” (2004)", "assay_in_all_cases": "DTP human tumour cell line panel, 48 h", "key": {"[1]": {"tested_on": "786-0"}, "[2]": {"tested_on": "A498"}, "[3]": {"tested_on": "A549"}, "[4]": {"tested_on": "ACHN"}, "[5]": {"tested_on": "BT-549"}, "[6]": {"tested_on": "CAKI-1"}, "[7]": {"tested_on": "CCRF-CEM"}, "[8]": {"tested_on": "COLO 205"}, "[9]": {"tested_on": "DU-145"}, "[10]": {"tested_on": "EKVX"}, "[11]": {"tested_on": "HCC 2998"}, "[12]": {"tested_on": "HCT-116"}, "[13]": {"tested_on": "HCT-15"}, "[14]": {"tested_on": "HL-60"}, "[15]": {"tested_on": "HOP-62"}, "[16]": {"tested_on": "HOP-92"}, "[17]": {"tested_on": "HT-29"}, "[18]": {"tested_on": "Hs-578T"}, "[19]": {"tested_on": "IGROV-1"}, "[20]": {"tested_on": "K562"}, "[21]": {"tested_on": "KM12"}, "[22]": {"tested_on": "LOX IMVI"}, "[23]": {"tested_on": "M14"}, "[24]": {"tested_on": "MCF7"}, "[25]": {"tested_on": "MDA-MB-231"}, "[26]": {"tested_on": "MDA-MB-435"}, "[27]": {"tested_on": "MDA-N"}, "[28]": {"tested_on": "MOLT-4"}, "[29]": {"tested_on": "NCI-H226"}, "[30]": {"tested_on": "NCI-H23"}, "[31]": {"tested_on": "NCI-H460"}, "[32]": {"tested_on": "NCI-H522"}, "[33]": {"tested_on": "NCI/ADR-RES"}, "[34]": {"tested_on": "OVCAR-3"}, "[35]": {"tested_on": "OVCAR-4"}, "[36]": {"tested_on": "OVCAR-5"}, "[37]": {"tested_on": "OVCAR-8"}, "[38]": {"tested_on": "PC-3"}, "[39]": {"tested_on": "RPMI-8226"}, "[40]": {"tested_on": "RXF 393"}, "[41]": {"tested_on": "SF-268"}, "[42]": {"tested_on": "SF-295"}, "[43]": {"tested_on": "SF-539"}, "[44]": {"tested_on": "SK-MEL-28"}, "[45]": {"tested_on": "SK-MEL-2"}, "[46]": {"tested_on": "SK-MEL-5"}, "[47]": {"tested_on": "SK-OV-3"}, "[48]": {"tested_on": "SN12C"}, "[49]": {"tested_on": "SNB-19"}, "[50]": {"tested_on": "SR"}, "[51]": {"tested_on": "SW-620"}, "[52]": {"tested_on": "T47D"}, "[53]": {"tested_on": "TK-10"}, "[54]": {"tested_on": "U-251"}, "[55]": {"tested_on": "UACC-257"}, "[56]": {"tested_on": "UACC-62"}, "[57]": {"tested_on": "UO-31"}}, "note": "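Cultured in 96-well plates, cells were exposed to test compound for 48 hours across five concentrations. GI50: concentration for 50% inhibition of growth.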 The source made the active and inactive calls. Rule as the data show it: active = GI50 up to about 1.1 µM and inactive = higher."}
{"smiles": "CC(C)(C)OC(=O)/C=C/[C@@H](CCC(=O)/C=C/[C@H](/C=C\\CCCC(=O)O)NC1(c2ccccc2)c2ccccc2-c2ccccc21)O[Si](C)(C)C(C)(C)C", "values": [{"measurement": "GI50", "setting": "[1]", "value": "16.1 µM (inactive)"}, {"measurement": "GI50", "setting": "[2]", "value": "19.2 µM (inactive)"}, {"measurement": "GI50", "setting": "[3]", "value": "14.3 µM (inactive)"}, {"measurement": "GI50", "setting": "[4]", "value": "17.8 µM (inactive)"}, {"measurement": "GI50", "setting": "[5]", "value": "16.5 µM (inactive)"}, {"measurement": "GI50", "setting": "[6]", "value": "17.9 µM (inactive)"}, {"measurement": "GI50", "setting": "[7]", "value": "29.2 µM (inactive)"}, {"measurement": "GI50", "setting": "[8]", "value": "21.5 µM (inactive)"}, {"measurement": "GI50", "setting": "[9]", "value": "16.6 µM (inactive)"}, {"measurement": "GI50", "setting": "[10]", "value": "19.2 µM (inactive)"}, {"measurement": "GI50", "setting": "[11]", "value": "16.8 µM (inactive)"}, {"measurement": "GI50", "setting": "[12]", "value": "13.6 µM (inactive)"}, {"measurement": "GI50", "setting": "[13]", "value": 12.3, "unit": "µM"}, {"measurement": "GI50", "setting": "[14]", "value": "24.8 µM (inactive)"}, {"measurement": "GI50", "setting": "[15]", "value": "17.5 µM (inactive)"}, {"measurement": "GI50", "setting": "[16]", "value": "4.8 µM (inactive)"}, {"measurement": "GI50", "setting": "[17]", "value": "14.7 µM (inactive)"}, {"measurement": "GI50", "setting": "[18]", "value": "38.9 µM (inactive)"}, {"measurement": "GI50", "setting": "[19]", "value": "16.5 µM (inactive)"}, {"measurement": "GI50", "setting": "[20]", "value": "16 µM (inactive)"}, {"measurement": "GI50", "setting": "[21]", "value": "18.1 µM (inactive)"}, {"measurement": "GI50", "setting": "[22]", "value": "13.8 µM (inactive)"}, {"measurement": "GI50", "setting": "[23]", "value": "14 µM (inactive)"}, {"measurement": "GI50", "setting": "[24]", "value": "15.9 µM (inactive)"}, {"measurement": "GI50", "setting": "[25]", "value": "14.1 µM (inactive)"}, {"measurement": "GI50", "setting": "[26]", "value": "17.8 µM (inactive)"}, {"measurement": "GI50", "setting": "[27]", "value": "17.1 µM (inactive)"}, {"measurement": "GI50", "setting": "[28]", "value": "9.16 µM (inactive)"}, {"measurement": "GI50", "setting": "[29]", "value": "18.3 µM (inactive)"}, {"measurement": "GI50", "setting": "[30]", "value": "16.3 µM (inactive)"}, {"measurement": "GI50", "setting": "[31]", "value": "17.6 µM (inactive)"}, {"measurement": "GI50", "setting": "[32]", "value": "18.5 µM (inactive)"}, {"measurement": "GI50", "setting": "[33]", "value": "10.8 µM (inactive)"}, {"measurement": "GI50", "setting": "[34]", "value": "16.7 µM (inactive)"}, {"measurement": "GI50", "setting": "[35]", "value": "17.1 µM (inactive)"}, {"measurement": "GI50", "setting": "[36]", "value": "20.5 µM (inactive)"}, {"measurement": "GI50", "setting": "[37]", "value": "18.1 µM (inactive)"}, {"measurement": "GI50", "setting": "[38]", "value": "13.5 µM (inactive)"}, {"measurement": "GI50", "setting": "[39]", "value": "10.5 µM (inactive)"}, {"measurement": "GI50", "setting": "[40]", "value": "11.5 µM (inactive)"}, {"measurement": "GI50", "setting": "[41]", "value": "17.1 µM (inactive)"}, {"measurement": "GI50", "setting": "[42]", "value": "15.5 µM (inactive)"}, {"measurement": "GI50", "setting": "[43]", "value": "18.2 µM (inactive)"}, {"measurement": "GI50", "setting": "[44]", "value": "25.8 µM (inactive)"}, {"measurement": "GI50", "setting": "[45]", "value": "15.4 µM (inactive)"}, {"measurement": "GI50", "setting": "[46]", "value": "16.9 µM (inactive)"}, {"measurement": "GI50", "setting": "[47]", "value": "46.6 µM (inactive)"}, {"measurement": "GI50", "setting": "[48]", "value": "15.8 µM (inactive)"}, {"measurement": "GI50", "setting": "[49]", "value": "20.6 µM (inactive)"}, {"measurement": "GI50", "setting": "[50]", "value": "19.4 µM (inactive)"}, {"measurement": "GI50", "setting": "[51]", "value": "26.9 µM (inactive)"}, {"measurement": "GI50", "setting": "[52]", "value": "12.6 µM (inactive)"}, {"measurement": "GI50", "setting": "[53]", "value": "24.8 µM (inactive)"}, {"measurement": "GI50", "setting": "[54]", "value": "16.3 µM (inactive)"}, {"measurement": "GI50", "setting": "[55]", "value": "17.8 µM (inactive)"}, {"measurement": "GI50", "setting": "[56]", "value": "13.9 µM (inactive)"}, {"measurement": "GI50", "setting": "[57]", "value": "15.2 µM (inactive)"}]}
